Results as given in paper PMC3914206.

What was measured:
panel of 442 kinases [1] = target: T1, panel of 442 kinases (Homo sapiens, UniProt Q9Y5S2); format: binding; settings: Compound Concentration 10 µM
T1 construct: purchased KINOMEscan
Description: (§1) We assessed the selectivity of members of this scaffold using the KINOMEscan methodology across a near comprehensive panel of 442 kinases [[18,27]].

panel of 442 kinases [2] = target: T2, panel of 442 kinases (Homo sapiens, UniProt O75385); format: binding; settings: kinase ULK1; compound concentration 10 µM
T2 construct: purchased KINOMEscan
T2 sequence (O75385 1-1050): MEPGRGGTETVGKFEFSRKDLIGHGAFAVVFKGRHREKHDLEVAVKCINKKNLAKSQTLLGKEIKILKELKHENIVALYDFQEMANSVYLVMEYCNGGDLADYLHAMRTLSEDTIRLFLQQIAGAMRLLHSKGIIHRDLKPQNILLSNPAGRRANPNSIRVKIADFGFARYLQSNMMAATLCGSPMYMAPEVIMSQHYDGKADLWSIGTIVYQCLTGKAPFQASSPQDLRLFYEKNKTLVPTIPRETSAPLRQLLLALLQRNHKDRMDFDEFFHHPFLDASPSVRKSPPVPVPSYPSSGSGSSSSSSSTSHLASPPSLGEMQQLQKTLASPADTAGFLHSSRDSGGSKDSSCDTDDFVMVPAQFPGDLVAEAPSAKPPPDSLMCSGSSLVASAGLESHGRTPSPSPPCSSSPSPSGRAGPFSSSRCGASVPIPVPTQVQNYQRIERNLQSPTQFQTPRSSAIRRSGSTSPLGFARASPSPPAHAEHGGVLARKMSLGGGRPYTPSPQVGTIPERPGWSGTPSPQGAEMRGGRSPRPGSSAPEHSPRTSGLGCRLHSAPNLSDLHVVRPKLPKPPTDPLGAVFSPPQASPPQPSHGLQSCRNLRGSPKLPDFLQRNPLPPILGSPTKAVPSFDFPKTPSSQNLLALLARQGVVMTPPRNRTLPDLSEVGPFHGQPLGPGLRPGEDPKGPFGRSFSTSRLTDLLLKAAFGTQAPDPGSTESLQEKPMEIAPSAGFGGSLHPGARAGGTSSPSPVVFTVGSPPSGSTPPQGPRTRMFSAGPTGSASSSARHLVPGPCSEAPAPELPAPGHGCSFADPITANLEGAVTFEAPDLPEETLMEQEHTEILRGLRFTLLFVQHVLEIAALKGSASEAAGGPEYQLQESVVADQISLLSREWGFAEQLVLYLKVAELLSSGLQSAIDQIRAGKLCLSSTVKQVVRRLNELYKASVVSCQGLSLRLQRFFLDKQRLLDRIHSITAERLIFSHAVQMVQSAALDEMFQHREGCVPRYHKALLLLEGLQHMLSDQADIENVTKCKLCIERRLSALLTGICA
Description: as §1

T1 sequence (Q9Y5S2 whole entry): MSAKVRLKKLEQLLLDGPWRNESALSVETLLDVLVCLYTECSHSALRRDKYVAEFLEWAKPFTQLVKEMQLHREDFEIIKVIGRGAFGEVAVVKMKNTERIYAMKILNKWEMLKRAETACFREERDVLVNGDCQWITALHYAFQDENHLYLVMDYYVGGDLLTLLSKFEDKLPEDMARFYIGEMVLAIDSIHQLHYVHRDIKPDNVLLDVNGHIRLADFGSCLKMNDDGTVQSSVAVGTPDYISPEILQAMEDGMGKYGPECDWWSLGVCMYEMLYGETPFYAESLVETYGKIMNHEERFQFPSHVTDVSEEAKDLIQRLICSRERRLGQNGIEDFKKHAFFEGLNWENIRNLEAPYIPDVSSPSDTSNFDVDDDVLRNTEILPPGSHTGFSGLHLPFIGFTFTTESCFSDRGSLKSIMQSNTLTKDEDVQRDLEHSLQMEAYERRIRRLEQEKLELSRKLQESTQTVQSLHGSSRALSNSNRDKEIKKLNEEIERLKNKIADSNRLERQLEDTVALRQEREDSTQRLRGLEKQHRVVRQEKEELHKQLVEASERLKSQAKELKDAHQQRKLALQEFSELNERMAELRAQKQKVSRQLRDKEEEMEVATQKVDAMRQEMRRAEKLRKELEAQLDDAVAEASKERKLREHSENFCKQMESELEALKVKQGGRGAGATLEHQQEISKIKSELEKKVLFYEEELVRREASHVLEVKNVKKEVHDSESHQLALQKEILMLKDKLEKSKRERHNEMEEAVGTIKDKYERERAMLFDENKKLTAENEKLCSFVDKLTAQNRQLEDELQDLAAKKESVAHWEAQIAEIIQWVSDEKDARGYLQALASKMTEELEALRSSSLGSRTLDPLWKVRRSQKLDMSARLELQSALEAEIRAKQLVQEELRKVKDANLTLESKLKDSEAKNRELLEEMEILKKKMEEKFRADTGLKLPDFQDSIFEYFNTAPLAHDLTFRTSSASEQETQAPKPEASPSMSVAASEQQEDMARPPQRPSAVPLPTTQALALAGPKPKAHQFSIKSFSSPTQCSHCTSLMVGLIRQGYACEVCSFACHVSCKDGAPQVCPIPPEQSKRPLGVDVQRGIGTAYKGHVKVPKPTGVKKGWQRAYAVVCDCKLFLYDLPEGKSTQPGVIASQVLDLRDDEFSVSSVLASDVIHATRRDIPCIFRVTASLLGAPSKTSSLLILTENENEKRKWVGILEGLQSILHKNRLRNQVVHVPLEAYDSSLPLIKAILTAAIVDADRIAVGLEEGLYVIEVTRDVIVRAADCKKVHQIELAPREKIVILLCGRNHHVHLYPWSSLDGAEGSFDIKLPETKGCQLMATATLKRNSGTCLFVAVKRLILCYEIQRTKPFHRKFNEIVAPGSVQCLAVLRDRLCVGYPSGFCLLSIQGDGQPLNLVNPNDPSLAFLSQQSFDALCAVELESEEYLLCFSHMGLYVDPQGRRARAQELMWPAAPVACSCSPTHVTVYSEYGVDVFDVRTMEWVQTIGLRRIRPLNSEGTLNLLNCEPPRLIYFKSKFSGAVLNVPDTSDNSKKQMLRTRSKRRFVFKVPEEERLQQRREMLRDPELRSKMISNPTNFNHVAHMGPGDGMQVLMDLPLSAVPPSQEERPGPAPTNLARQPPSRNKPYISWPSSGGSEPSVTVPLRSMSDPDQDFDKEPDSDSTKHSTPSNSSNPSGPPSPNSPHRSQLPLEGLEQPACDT

| Structure (SMILES) | KINOMEscan: MRCKB (panel of 442 kinases [1]) | % Ctrl, ULK1 (panel of 442 kinases [2]) |
| --- | --- | --- |
| CCOc1cc(C(=O)N2CCC(N3CCN(C)CC3)CC2)ccc1Nc1ncc2c(n1)N(C1CCCC1)c1ccccc1C(=O)N2C [Compound 26] | 100 | 100 % Ctrl |
| COc1cc(C(=O)N2CCC(N3CCN(C)CC3)CC2)ccc1Nc1ncc2c(n1)N1CCc3cccc(c31)C(=O)N2C [Compound 24] |  | 100 % Ctrl |
| COc1cc(C(=O)N2CCC(N3CCN(C)CC3)CC2)ccc1Nc1ncc2c(n1)N(C)c1ccccc1C(=O)N2C [15 (LRRK2-IN-1)] | 100 | 80 % Ctrl |
| COc1cc(C(=O)N2CCC(N3CCN(C)CC3)CC2)ccc1Nc1ncc2c(n1)N(C1CCCC1)c1ccccc1C(=O)N2C [Compound 25, 11-cyclopentyl-2-((2-methoxy-4-(4-(4-methylpiperazin-1-yl)piperidine-1-carbonyl)phenyl)amino)-5-methyl-5H-benzo[e]pyrimido[5,4-b][1,4]diazepin-6(11H)-one] | 100 | 100 % Ctrl |
